Like-named read-outs stand apart in the source and are kept apart here.
Legend:
[1] = target: T1, NS5B from the BK strain (genotype 1b) (Hepatitis C virus genotype 1b, UniProt P26663); test: Hepatitis C polymerase inhibition, NS5B BK strain, 33P-GTP filter assay; type: biochemical; settings: NS5B BK strain
T1 construct: NS5B from the BK strain (genotype 1b) is expressed in E. coli as a protein in which the 21 C-terminal amino acids are replaced; made in house; host or cells: E. coli
Method in brief: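 Radiolabelled RNA synthesis was measured by filter capture and scintillation counting after EDTA stop. His-tagged, C-terminally truncated (Δ21) genotype 1b BK NS5B from E. coli, pre-exposed to compound for 15 min, copied a self-primed RNA template (~3 nM) with α-[33P]-GTP for 2 h at room temperature.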

[2] = target: BB7 (RNA-dependent RNA polymerase hepatitis C virus protein sequence derived from HCV replicon) (Hepatitis C virus genotype 1b, UniProt Q9WMX2); test: Hepatitis C polymerase inhibition, BB7 sequence; type: biochemical; settings: Table 1B
Sequence of BB7 (RNA-dependent RNA polymerase hepatitis C virus protein sequence derived from HCV replicon) (Q9WMX2 2420-3010): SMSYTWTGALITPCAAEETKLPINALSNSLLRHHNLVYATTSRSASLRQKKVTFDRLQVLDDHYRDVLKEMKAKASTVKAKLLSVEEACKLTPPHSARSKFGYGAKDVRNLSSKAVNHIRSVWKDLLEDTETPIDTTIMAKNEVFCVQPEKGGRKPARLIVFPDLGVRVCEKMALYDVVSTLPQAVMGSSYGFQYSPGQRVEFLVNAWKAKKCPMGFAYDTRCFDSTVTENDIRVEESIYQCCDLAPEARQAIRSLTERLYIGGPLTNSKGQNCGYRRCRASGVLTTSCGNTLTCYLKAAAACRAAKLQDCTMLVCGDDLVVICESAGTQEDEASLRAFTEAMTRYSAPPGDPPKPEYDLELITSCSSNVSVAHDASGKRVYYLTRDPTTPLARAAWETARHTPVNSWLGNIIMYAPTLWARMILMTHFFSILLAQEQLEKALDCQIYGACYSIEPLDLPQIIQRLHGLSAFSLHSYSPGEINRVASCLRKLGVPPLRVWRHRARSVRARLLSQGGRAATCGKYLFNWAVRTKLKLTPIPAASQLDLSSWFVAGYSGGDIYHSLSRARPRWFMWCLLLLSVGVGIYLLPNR

T1 sequence (P26663 2420-2989): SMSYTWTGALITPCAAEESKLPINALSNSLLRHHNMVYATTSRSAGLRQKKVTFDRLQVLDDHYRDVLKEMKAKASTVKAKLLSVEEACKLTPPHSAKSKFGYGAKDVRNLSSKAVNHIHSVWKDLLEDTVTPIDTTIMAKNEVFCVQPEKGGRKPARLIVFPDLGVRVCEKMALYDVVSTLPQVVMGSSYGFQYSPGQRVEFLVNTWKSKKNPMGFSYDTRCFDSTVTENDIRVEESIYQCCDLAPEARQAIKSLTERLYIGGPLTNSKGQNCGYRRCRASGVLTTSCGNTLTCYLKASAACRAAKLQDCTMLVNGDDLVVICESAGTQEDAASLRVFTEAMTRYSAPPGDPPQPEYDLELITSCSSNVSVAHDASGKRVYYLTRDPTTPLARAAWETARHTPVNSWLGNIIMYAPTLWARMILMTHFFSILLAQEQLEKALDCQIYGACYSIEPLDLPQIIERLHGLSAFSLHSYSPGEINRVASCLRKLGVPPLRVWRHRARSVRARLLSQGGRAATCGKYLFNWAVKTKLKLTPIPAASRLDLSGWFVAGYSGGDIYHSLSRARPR

CCCC1(CC(=O)O)OCCc2c1[nH]c1c(F)ccc(C(=O)N3CCOCC3)c21 (centres unmarked) [Example 225, [8-Fluoro-5-(morpholine-4-carbonyl)-1-propyl-1,3,4,9-tetrahydro-pyrano[3,4-b]indol-1-yl]-acetic Acid]
IC50 ([1]; Table 1A, read-out: HCV pol BK IC50): > 20000 nM
melting point: 98 to 100 °C

CCCC1(CC(=O)O)OCCc2c1[nH]c1c(C)c(C(=O)NC)cc(C#N)c21 (centres unmarked) [Example 357, (5-cyano-8-methyl-7-methylcarbamoyl-1-propyl-1,3,4,9-tetrahydro-pyrano[3,4-b]indol-1-yl)-acetic acid]
IC50 ([1]; Table 1B, read-out: BK IC50): 1300 nM
IC50 [2]: 970 nM

CCCC1(CC(=O)O)OCCc2c1[nH]c1c(C)c(C(=O)N(C)C)cc(C#N)c21 (centres unmarked) [Example 358, (5-cyano-8-methyl-7-dimethylcarbamoyl-1-propyl-1,3,4,9-tetrahydro-pyrano[3,4-b]indol-1-yl)-acetic acid]
IC50 ([1]; Table 1B, read-out: BK IC50): 16000 nM
IC50 [2]: 20000 nM

CCCOc1cc(C#N)c2c3c([nH]c2c1C)C(CCC)(CC(=O)O)OCC3 (centres unmarked) [Example 359, (5-cyano-8-methyl-7-propoxy-1-propyl-1,3,4,9-tetrahydro-pyrano[3,4-b]indol-1-yl)-acetic acid]
IC50 ([1]; Table 1B, read-out: BK IC50): 70 nM
IC50 [2]: 70 nM

CCCOc1cc(C#N)c2c3c([nH]c2c1C)[C@@](CCC)(CC(=O)O)OCC3 [Example 360, (1R)-(5-cyano-8-methyl-7-propoxy-1-propyl-1,3,4,9-tetrahydro-pyrano[3,4-b]indol-1-yl)-acetic acid]
IC50 ([1]; Table 1B, read-out: BK IC50): 90 nM
IC50 [2]: 40 nM

CCCOc1cc(C#N)c2c3c([nH]c2c1C)[C@](CCC)(CC(=O)O)OCC3 [Example 361, (1S)-(5-cyano-8-methyl-7-propoxy-1-propyl-1,3,4,9-tetrahydro-pyrano[3,4-b]indol-1-yl)-acetic acid]
IC50 ([1]; Table 1B, read-out: BK IC50): 1800 nM
IC50 [2]: 770 nM

CCCC1(CC(=O)O)OCCc2c1[nH]c1c(C)c(OC)cc(C#N)c21 (centres unmarked) [Example 363, (5-cyano-7-methoxy-8-methyl-1-propyl-1,3,4,9-tetrahydro-pyrano[3,4-b]indol-1-yl)-acetic acid]
IC50 ([1]; Table 1B, read-out: BK IC50): 360 nM
IC50 [2]: 130 nM

CCCC1(CC(=O)O)OCCc2c1[nH]c1c(C)c(OC(C)C)cc(C#N)c21 (centres unmarked) [Example 364, (5-cyano-7-isopropoxy-8-methyl-1-propyl-1,3,4,9-tetrahydro-pyrano[3,4-b]indol-1-yl)-acetic acid]
IC50 ([1]; Table 1B, read-out: BK IC50): 480 nM
IC50 [2]: 220 nM

CCCCOc1cc(C#N)c2c3c([nH]c2c1C)C(CCC)(CC(=O)O)OCC3 (centres unmarked) [Example 365, (7-butoxy-5-cyano-8-methyl-1-propyl-1,3,4,9-tetrahydro-pyrano[3,4-b]indol-1-yl)-acetic acid]
IC50 ([1]; Table 1B, read-out: BK IC50): 100 nM
IC50 [2]: 60 nM

CCCC1(CC(=O)O)OCCc2c1[nH]c1c(C)c(OCCC(C)(C)C)cc(C#N)c21 (centres unmarked) [Example 366, [5-cyano-7-(3,3-dimethyl-butoxy)-8-methyl-1-propy-1,3,4,9-tetrahydro-pyrano[3,4-b]indol-1-yl]-acetic acid]
IC50 ([1]; Table 1B, read-out: BK IC50): 1700 nM
IC50 [2]: 550 nM

CCCC1(CC(=O)O)OCCc2c1[nH]c1c(C)c(OCc3cccc(F)c3)cc(C#N)c21 (centres unmarked) [Example 367, [5-cyano-7-(3-fluoro-benzyloxy)-8-methyl-1-propyl-1,3,4,9-tetrahydro-pyrano[3,4-b]indol-1-yl]acetic acid]
IC50 ([1]; Table 1B, read-out: BK IC50): 80 nM
IC50 [2]: 90 nM

CCCC1(CC(=O)O)OCCc2c1[nH]c1c(C)c(OCc3ccccc3)cc(C#N)c21 (centres unmarked) [Example 368, (7-benzyloxy-5-cyano-8-methyl-1-propyl-1,3,4,9-tetrahydro-pyrano[3,4-b]indol-1-yl)-acetic acid]
IC50 ([1]; Table 1B, read-out: BK IC50): 110 nM
IC50 [2]: 130 nM

CCCC1(CC(=O)O)OCCc2c1[nH]c1c(C)c(OCCF)cc(C#N)c21 (centres unmarked) [Example 369, [5-cyano-7-(2-fluoro-ethoxy)-8-methyl-1-propyl-1,3,4,9-tetrahydro-pyrano[3,4-b]indol-1-yl]acetic acid]
IC50 ([1]; Table 1B, read-out: BK IC50): 4 nM
IC50 [2]: 10 nM

CCCC1(CC(=O)O)OCCc2c1[nH]c1c(C)c(OCCCF)cc(C#N)c21 (centres unmarked) [Example 370, [5-cyano-7-(3-fluoro-propoxy)-8-methyl-1-propyl-1,3,4,9-tetrahydro-pyrano[3,4-b]indol-1-yl]acetic acid]
IC50 ([1]; Table 1B, read-out: BK IC50): 40 nM
IC50 [2]: 30 nM

(5-cyano-7-ethoxy-8-methyl-1-propyl-1,3,4,9-tetrahydro-pyrano[3,4-b]indol-1-yl)-acetic acid [Example 362]
IC50 ([1]; Table 1B, read-out: BK IC50): 110 nM
IC50 [2]: 70 nM

(8-cyano-1-cyclobutyl-5-trifluoromethyl-1,3,4,9-tetrahydropyrano[3,4-b]indol-1-yl)acetic acid [Example 277]
IC50 ([1]; Table 1B, read-out: BK IC50): 2600 nM
IC50 [2]: 6200 nM

(8-fluoro-5-nitro-1-propyl-1,3,4,9-tetrahydropyrano[3,4-b]indol-1-yl)carboxylic acid [Example 352]
IC50 ([1]; Table 1B, read-out: BK IC50): 900 nM
IC50 [2]: 2800 nM

[5-cyano-1-(1-ethylethyl)-8-fluoro-1,3,4,9-tetrahydropyrano[3,4-b]indol-1-yl]acetic acid [Example 311]
IC50 ([1]; Table 1B, read-out: BK IC50): > 30000 nM
IC50 [2]: > 30000 nM

[5-cyano-1-(1-ethylethyl)-8-methyl-1,3,4,9-tetrahydropyrano[3,4-b]indol-1-yl]acetic acid [Example 294]
IC50 ([1]; Table 1B, read-out: BK IC50): > 30000 nM
IC50 [2]: > 30000 nM
